Results taken from patent publication US20240260578A1, “HERBICIDAL COMPOSITIONS AND RELATED METHODS” (BELCHIM Crop Protection USA LLC, priority 2023, published 2024).
“And” between values parts separate entries of the source, which are not always exact repeats. Identical values can stand only once.

Experiments:
Assay type in all cases: in vivo
[1] = tested on: Yellow nutsedge (Cypersus esculentus); assay: Field trial, post-emergent control of established Yellow nutsedge (Example 1); settings: 10 DAT, pyridate 24 fluid ounces/acre, sulfentrazone 12 fluid ounces/acre, visual estimate vs untreated plot, non-replicated
Experimental: Field trials were conducted to evaluate the efficacy of pyridate herbicide alone and in combination with sulfentrazone when applied in a post-emergent manner to established Yellow nutsedge (Cypersus esculentus). The field trial was conducted alongside of a gravel path on the Corbett Farm located Batten Pond Road in Selma, NC 27576. Yellow nutsedge was established and ranged from 8-12 inches in height. The distribution of weeds in the plots was uniform throughout this location.
Individual treatments were applied on a 1×4 meter squared plot area. The experimental design was a non-replicated linear strip plot. The applications were made with a RYOBI electric 4 gallon backpack sprayer equipped with 11004 nozzles with a spray pressure of 35 psi calibrated to deliver about 40 gallons per acre spray volume, respectively. All applications were applied on the same day. The wind speed was less than 10 mph at time of application.
Pyridate used in this trial was a five pound active ingredient per gallon emulsifiable concentrate (EC) marketed by Belchim Crop Protection as Tough® 5EC Herbicide. The sulfentrazone used in this trial was Sulfentrazone 4L Select marketed by Prime Source, a division of Albaugh, LLC. […]

Yellow Nutsedge = assay: Post-emergent control of Yellow Nutsedge, Hampstead, North Carolina (Example 4); settings: 35 DAT, rates per Table 5
Experimental: (§1) A study was conducted to evaluate and compare the post-emergent control of Yellow Nutsedge versus the industry standards of Sulfentrazone Select or Halosulfuron 75 WDG. The study was conducted in Hampstead, North Carolina at Old Pointe Country Club. A randomized block design with four replications was utilized. Treatments were applied with a CO2 pressurized spray system. Irrigations were suspended for at least 24 hours after application. [table]

[2] = tested on: green Kyllinga (Kyllinga brevifolia); assay: Post-emergent control of green Kyllinga, Hampstead, North Carolina (Example 3); settings: 35 DAT, rates per Table 3
Experimental: as §1, with “green Kyllinga (Kyllinga brevifolia)” for “Yellow Nutsedge”, “application.” for “application. [table]”

| Structure (SMILES) | Percentage (%) Control 10 Days after Treatment (DAT) [1] | Percentage Control (Yellow Nutsedge) [%] | Percentage Control [2] [%] |
| --- | --- | --- | --- |
| CCCCCCCCSC(=O)Oc1cc(Cl)nnc1-c1ccccc1 [Pyridate, pyridate] | approximately 20% and 20% | – | – |
| Cc1nn(-c2cc(NS(C)(=O)=O)c(Cl)cc2Cl)c(=O)n1C(F)F [Sulfentrazone, sulfentrazone] | approximately 70% and 70% | 60 | 43.3 |
